Measurements from patent US8518956B2, “1-(1-(2-ethoxyethyl)-3-ethyl-7-(4-methylpyridin-2-ylamino)-1H-pyrazolo[4,3-d]pyrimidin-5-yl) piperidine-4-carboxylic acid and salts thereof” (priority 2005, dated 2013).

Tests used:
Format in all cases: biochemical
PDE5 enzyme [1] = molecular target: T1, PDE5 enzyme (Homo sapiens, UniProt O76074); experiment: Method 1: Human Platelet PDE5 Enzyme Inhibition Scintillation Proximity Assay; details: METHOD 1: PDE5 IC50, Table B, WO2004096810 examples
T1 construct: The PDE5 enzyme isolated from human platelets; from tissue; host or cells: human platelets
In short: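 IC50 fitted from 10-point half-log dose-response curves run in duplicate, with inhibition relative to uninhibited controls. SPA beads capture [3H]GMP produced when platelet-derived PDE5 acts for 60 min at 30 °C on 500 nM cGMP (3:1 cold:labelled) in pH 7.4 Tris/MgCl2/BSA buffer.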

PDE5 enzyme [2] = molecular target: T1, PDE5 enzyme; experiment: Method 1A: Alternative Human Platelet PDE5 Enzyme Inhibition Scintillation Proximity Assay; details: METHOD 1a: PDE5 IC50, Table D, WO2004096810 examples
Description: Method 1A: Alternative Human Platelet PDE5 Enzyme Inhibition Scintillation Proximity Assay
PDE5 IC50 Assay: 96-Well Microtiter Plate Format
• Buffer A: 20 mM Tris-HCl, 5 mM MgCl2, pH 7.4 • Buffer B: 2 mg/ml BSA in Buffer A (enzyme buffer) • cGMP substrate: Final concentration of 50 nM in assay The amount of ^3H-labeled substrate added depends upon the specific activity of [^3H]cGMP, and it is diluted in Buffer A. • PDE enzyme: Prepared in Buffer B. The dilution factor is determined by enzyme activity. • SPA beads: 4 mg/ml suspension prepared in dH2O.
Stocks of standard and test compound are prepared at 2 mM in 100% DMSO. […] 27 μl of Buffer A are added to the wells of the assay plates. From the dilution plate, 3 μl of diluted compound is delivered in duplicate or 3 μl of 100% DMSO (for positive and negative controls) are added. 30 μl of enzyme are added. For the negative control wells, Buffer B is substituted in place of the enzyme. 30 μl of labeled substrate are added to all wells.
After incubating for 60 minutes at room temperature, the reaction is stopped with the addition of 30 μl of the yttrium silicate beads. These beads are dense and require constant agitation while being added to the plate. The plates are sealed and shaken on a plate shaker for fifteen minutes to allow the beads to bind the GMP product.
After allowing the beads to settle for 30 minutes, plates are read on a NXT TopCount scintillation counter and the data are analyzed as follows. Percent inhibition values are calculated using the means of the 0% and 100% controls on each plate. The estimates of the 4-parameters of the logistic, sigmoid dose-response model are then calculated using the well-level percent inhibition value for the compound.

PDE6 enzyme = experiment: Method 2A: Alternative Human Retina PDE6 Enzyme Inhibition Scintillation Proximity Assay (SPA); details: Table F, WO2004096810 examples
Description: Lift the retina with care and locate the optic nerve. Cut through the optic nerve and transfer the retina to a small dish containing a few ml of homogenisation buffer. Gently float the retina out on the surface of the buffer and remove any obvious pigmented material from the iris. Place the retina in a second dish with clean buffer to remove last traces of pigment and then transfer to a 50 ml Corning Costar centrifuge tube (Sigma) and keep on ice. • PDE6 Isolation and Purification from Retina: Allow 2 mls of the homogenisation buffer per bovine retina and 1 ml per retina for dog and human. Homogenise using hand-held homogeniser 3×5 second bursts cooling on ice between each burst. Filter homogenate through two layers of surgical gauze. Spin at 100,000 g for 60 minutes at 4° C. […] Run through FPLC (Pharmacia FPLC LKB/FRAC-100, Pharmacia) or aliquot and store in liquid nitrogen as needed. Method 2A: Alternative Human Retina PDE6 Enzyme Inhibition Scintillation Proximity Assay (SPA)
The inhibition of PDE6 enzyme activity by a test compound also can be measured in accordance with the in vitro assay of Method 1A, but instead using semi-purified PDE6 enzyme isolated from human, bovine or canine retina in place of PDE5 enzyme. […] [3H]GMP binds to yttrium silicate SPA beads and is detected by scintillation counting.

PDE11 enzyme = molecular target: T2, PDE11 enzyme (Homo sapiens, UniProt Q9HCR9, DUP921-921); experiment: Method 3A: Alternative Human Recombinant PDE11 Enzyme Inhibition Scintillation Proximity Assay (SPA); details: Table F, WO2004096810 examples
T2 construct: FLAG (N); made in house; host or cells: Sf9 insect cells (baculovirus, pFastBac)
Description: Incubate at 27° C. with 220 rpm shaking for 48 hours. Harvest the infected cells by pelleting at 2000 rpm for 10 minutes at 4° C. Store the infected cell pellet at −80° C. until ready for purification. Resuspend the thawed cell pellets to 1×10^7 cells/ml (=20 ml buffer consisting of 20 mM Hepes (pH7.2), 1 mM EDTA, 20 mM sucrose, 150 mM NaCl and protease inhibitor tablets). Mix thoroughly and allow to stand on ice for 10 minutes. Sonicate for 5×5 seconds, on ice. Spin the mixture at 12,000 rpm for 10 minutes at 4° C. in SS34. Store the insoluble pellet at −80° C., and proceed to the purification of the soluble material. • (b) Purification: Prepare the column (1.0 cm diameter, Kontes) by rinsing the empty column twice with TBS. Then mix beads (Anti-FLAG M2 Agarose, Sigma) with TBS and add to the column—allow the beads to settle. Wash the column with 3 column volumes of 0.1M glycine (pH3.5). […] Apply the extract to the column and allow the extract to enter by gravity flow. Reapply the flow-through. Wash the column with 15 column volumes of TBS. Elute the protein with 5×1 ml aliquots of FLAG peptide (Sigma) (i.e., 100 ug/ml in TBS). Elute the remaining protein with 1 ml 0.1M glycine, and immediately add 25 ul 1M Tris pH8 to neutralize. Method 3A: Alternative Human Recombinant PDE11 Enzyme Inhibition Scintillation Proximity Assay (SPA)

T2 sequence (Q9HCR9 with tags, fused parts or gaps DUP921-921 limits assumed): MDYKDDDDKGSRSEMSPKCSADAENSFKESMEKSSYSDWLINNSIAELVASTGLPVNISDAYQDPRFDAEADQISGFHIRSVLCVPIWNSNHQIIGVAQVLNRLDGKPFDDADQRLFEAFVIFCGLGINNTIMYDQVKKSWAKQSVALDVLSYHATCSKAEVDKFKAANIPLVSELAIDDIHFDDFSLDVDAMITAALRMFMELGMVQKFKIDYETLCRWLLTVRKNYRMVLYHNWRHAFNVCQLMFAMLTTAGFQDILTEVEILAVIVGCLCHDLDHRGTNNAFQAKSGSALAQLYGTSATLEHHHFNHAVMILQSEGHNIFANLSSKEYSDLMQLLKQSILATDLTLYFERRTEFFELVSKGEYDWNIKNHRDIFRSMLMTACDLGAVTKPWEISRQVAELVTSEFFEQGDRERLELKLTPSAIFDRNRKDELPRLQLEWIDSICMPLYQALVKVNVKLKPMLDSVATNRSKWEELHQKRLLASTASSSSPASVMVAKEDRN

| Compound | IC50 (PDE5 enzyme [1]) [nM] | IC50 (PDE5 enzyme [2]) [nM] | IC50 (PDE6 enzyme) [nM] | IC50 (PDE11 enzyme) [nM] |
| --- | --- | --- | --- | --- |
| Cc1ccnc(Nc2nc(N3CCC(C(=O)O)CC3)nc3c(C)nn(CCOCC(F)(F)F)c23)c1 [WO2004096810 Example 261] | 0.57 | 0.115 | 110 | 585 |
| Cc1cc(Nc2nc(N3CCC(C(=O)O)CC3)nc3c(C)nn(CCOCC(F)(F)F)c23)ncn1 [WO2004096810 Example 262] | 0.93 | 0.0755 | 66.3 | 608 |
| CCc1nn(CCOCC(F)(F)F)c2c(Nc3cc(C)ncn3)nc(N3CCC(C(=O)O)CC3)nc12 [WO2004096810 Example 263] | 0.27 | 0.0197 | 30.6 | 384 |
